For assay [1], the target named is T1, hPAD4 enzyme (Homo sapiens (Human), UniProt Q9UM07). The assay can be described thus: RFMS2 assay (RapidFire mass spectrometry, TSTGGRQGSHH peptide substrate). The class given is biochemical. Conditions: 35 nM recombinant human PAD4, 500 μM TSTGGRQGSHH peptide, 30 minutes at room temperature; read-out: RFMS 2 IC50. In short, it runs like this: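 Recombinant human PAD4 (35 nM) with 500 μM TSTGGRQGSHH peptide in HEPES pH 7.4, 200 mM NaCl, 2 mM CaCl2, 5 mM DTT, 1.2% DMSO, 30 min at room temperature; 3-fold compound series, top 20 μM. Quenched with formic acid; substrate and citrullinated product quantified by RapidFire MRM mass spectrometry for IC50.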

The target in assay [2] is T1, hPAD4 enzyme. The assay can be described thus: RFMS1 assay (RapidFire mass spectrometry, BAEE substrate). Conditions: 5 nM hPAD4, 250 μM BAEE, 30 min preincubation at 37° C., 90 min reaction; read-out: RFMS 1 IC50. The class given is biochemical. The procedure, abridged:
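hPAD4 (5 nM) preincubated 30 min at 37° C. with compound, then 250 μM BAEE for 90 min at 37° C. in pH 7.5 HEPES buffer with 50 μM calcium, 1 mM DTT, 5 μM TPEN. TCA quench, phenyl glyoxal derivatisation; citrulline product measured by RapidFire MS, normalised to internal standard; IC50 values.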

T1 sequence (Q9UM07 whole entry): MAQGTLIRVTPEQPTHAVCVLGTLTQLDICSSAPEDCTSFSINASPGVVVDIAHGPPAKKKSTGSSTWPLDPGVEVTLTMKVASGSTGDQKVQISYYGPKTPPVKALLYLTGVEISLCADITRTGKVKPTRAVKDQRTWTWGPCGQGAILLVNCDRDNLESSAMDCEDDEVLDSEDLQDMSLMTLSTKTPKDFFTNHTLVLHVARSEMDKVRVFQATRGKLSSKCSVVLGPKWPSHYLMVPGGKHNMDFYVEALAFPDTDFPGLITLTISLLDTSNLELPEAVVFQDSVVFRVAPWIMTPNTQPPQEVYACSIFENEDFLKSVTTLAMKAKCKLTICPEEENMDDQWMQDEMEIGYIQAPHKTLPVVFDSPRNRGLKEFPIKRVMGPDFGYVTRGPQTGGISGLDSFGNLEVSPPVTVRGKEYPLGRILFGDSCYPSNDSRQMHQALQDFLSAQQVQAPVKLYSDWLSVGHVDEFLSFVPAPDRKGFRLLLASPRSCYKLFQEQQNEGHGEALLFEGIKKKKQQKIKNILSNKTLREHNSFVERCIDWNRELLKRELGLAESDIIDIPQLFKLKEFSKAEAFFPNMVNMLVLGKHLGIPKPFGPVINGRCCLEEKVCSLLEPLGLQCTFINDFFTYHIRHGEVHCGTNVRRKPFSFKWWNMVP

For `Cn1c(-c2cc3ccccc3n2CC2CC2)nc2cc3c(c(F)c21)CCN(C[C@H](N)CF)C3=O` [Example 236, (S)-6-(2-amino-3-fluoropropyl)-2-(1-(cyclopropylmethyl)-1H-indol-2-yl)-9-fluoro-1-methyl-1,6,7,8-tetrahydro-5H-imidazo[4,5-g]isoquinolin-5-one], the IC50 (in general, the concentration that gives 50% inhibition) was in the range of 501 to 1000 nM in assay [1] and 101 to 500 nM in assay [2].

Consider `C[C@@H](N)CN1CCc2c(cc3nc(-c4cc5ccccc5n4CC4CC4)n(C)c3c2F)C1=O` [Example 237, (R)-6-(2-aminopropyl)-2-(1-(cyclopropylmethyl)-1H-indol-2-yl)-9-fluoro-1-methyl-1,6,7,8-tetrahydro-5H-imidazo[4,5-g]isoquinolin-5-one], for which the IC50 in assay [1] and in assay [2] was 101 to 500 nM in each case.

With `COc1cccc2cc(-c3nc4cc5c(c(F)c4n3C)CCN(C[C@H](N)CF)C5=O)n(CC3CC3)c12` [Example 238, (S)-6-(2-amino-3-fluoropropyl)-2-(1-(cyclopropylmethyl)-7-methoxy-1H-indol-2-yl)-9-fluoro-1-methyl-1,6,7,8-tetrahydro-5H-imidazo[4,5-g]isoquinolin-5-one], the IC50 in assay [1] lay in the range of 101 to 500 nM; in assay [2], 11 to 100 nM.

For the origin of these results see US20250346592A1 (Celgene Corporation, priority 2022, published 2025).
